System in the first test: not listed separately
The test can be described thus: Conversion of ketoprofen esters in organic solvent/oleic acid media. The class given is biochemical. The following applies: KPEG 50 mg; as E212. The method, then: To optimize the organic solvent used in the presence of oleic acid a variety of organic solvents were used, along with a variety of ketoprofen esters. In this experiment, 50 mg of ketoprofen esters were weighed into flasks, along with 1 ml of oleic acid and 9 ml of an organic solvent. The flasks were capped and incubated at 35° C., 250 rpm, for 10-26 hours before stopping the reaction by first adding 4 ml CHCl3 to solubilize the substrates and products, then filtering through a 0.2 um Gelman Nylaflo filter. Samples were then diluted in methanol and analyzed by HPLC as in Example 18. The experiment was also performed using 200 ul of oleic acid and 10ml buffer, which was acidified, extracted with CHCl3 and analyzed by HPLC as above.
One ml of oleic acid was added, as was 9 ml of buffer (100 mM (NH4)H2 PO4, pH 5.5) or organic solvent. Flasks were placed into a 35° C. incubator and shaken at 250 rpm for 13 hours. Reaction was stopped by adding 5 ml CHCl3 to solubilize the organic material and filtering the solutions using 0.2 um Gelman Nylaflo membranes to remove the enzyme. Samples were analyzed on an ODS-3 RAC column using CH3 OH:10 mM (NH4)H2PO4 (60:40) as eluant, flow rate 4 ml/min, and detection at 254 nm. %ee was determined by the resolution of diastereomeric amides on the above HPLC system, as per Example 18.
On to `C1=CCCCC1` [Cyclohexene], for which the “% Acid” value was 3%.
With `C1=CCCCCCC1` [Cyclooctene], the “% Acid” value came to 16%.
Regarding `CC(C)CC(C)(C)C` [Isooctane], the “% Acid” value was 48%.

The test is the same for the next values; noted with them: KPEG; as E212.
`C1=CCCCC1` [Cyclohexene]: the “% ee S-acid” value is given as 52%.
As for `C1=CCCCCCC1` [Cyclooctene], the “% ee S-acid” value came to 92%.
For `CC(C)CC(C)(C)C` [Isooctane], the “% ee S-acid” value is recorded as 97%.

The same test, now with this note: KPG 50 mg, 100 mg CSC-2 on silica (279-SD-1), 9 ml solvent (or buffer)/1 ml oleic acid, 13 hours.
With `C1=CCCCC1` [Cyclohexene], the “% Acid” value came to 12%.
For the compound `C1=CCCCCCC1` [Cyclooctene], the “% Acid” value was 38%.
With `CC(C)CC(C)(C)C` [Isooctane], the “% Acid” value came out at 39%.

The same test, now with this note: KPG; as E212.
In the case of `C1=CCCCC1` [Cyclohexene], the “% ee S-acid” value worked out at 94%.
In the case of `C1=CCCCCCC1` [Cyclooctene], the “% ee S-acid” value came out at 98%.
The same measure, in the same setting: next, `CC(C)CC(C)(C)C` [Isooctane]: 98%.

The subject of another test is Lipase MY. Description: Two phase Lipase MY hydrolysis of HPPA-Me in organic solvent/water mixtures. The class given is biochemical, Candida rugosa.
Settings: not given
As for the experimental part:
A. 75% organic solvent/25% aqueous buffer--Fifty milligrams of R,S-HPPA-Me was combined in 10 ml Scintillation vial with 7.5 ml of organic solvent, 2.5 ml of 50 mM phosphate buffer pH 6.0, and 5 mg Lipase MY. The reactions were placed on shaker and shaken for a period of 0-43 hours with samples being taken at various times.
B. 25% organic solvent/75% aqueous buffer--Fifty milligrams of R,S-HPPA-Me was combined, in 10 ml Scintillation vial with 2.5 ml of organic solvent, 7.5 ml 50mM phosphate buffer (pH 6.8), and 5 mg Lipase MY. The reactions were shaken for a period of 0-143 hours with samples being taken at various time points.
The data in Table 2 represents the % conversion and % R-HPPA produced using the indicated organic solvents in a two-phase system wherein 75% […] of the total vehicle (solvent) was water and the balance (25%) was organic solvents.
As for `CC(C)=O` [acetone], the “% R” value is reported as 0% and the “Conversion (ester/acid)” value is 0%.
As to `CCO` [ethyl alcohol], the “Conversion (ester/acid)” value worked out at 0%.

Staying with this test, now noted: solvent 25%, 5.3 hr.
Regarding `Fc1ccccc1` [fluorobenzene], the “% R” value came out at 95% and the “Conversion (ester/acid)” value was found to be 40%.

Staying with this test, now noted: solvent 25%, 43 hr.
For the compound `ClCC(Cl)Cl` [1,1,2 trichloroethane], the “% R” value is listed as 79% and the “Conversion (ester/acid)” value is reported as 29%.
For `BrCCBr` [1,2-dibromoethane] the same measures were 73% and 33%.
For `CC(C)O` [2-propanol], the “% R” value is given as 0% and the “Conversion (ester/acid)” value is recorded as 0%.
`CCO` [ethyl alcohol]: the “% R” value worked out at 0%.

Staying with this test, now noted: solvent 75%, 5.3 hr.
Take `Fc1ccccc1` [fluorobenzene]: the “% R” value worked out at 86% and the “Conversion (ester/acid)” value worked out at 29%.

The same test, now with this note: solvent 75%, 43 hr.
With `BrCCBr` [1,2-dibromoethane], the “% R” value is given as 57% and the “Conversion (ester/acid)” value worked out at 23%.
Take `CC(C)O` [2-propanol]: the “% R” value stood at 0% and the “Conversion (ester/acid)” value turned out to be 0%.
For `CCO` [ethyl alcohol], the “% R” value is 0%.

The subject of a further test is CSC-2. Description: Effect of additives and solvents on hydrolysis of ketoprofen monoglyceride by CSC-2. The class given is biochemical, Candida rugosa. The following applies: solvent/buffer 1:1 two phase, 16 hour reactions. The method, then:
Hydrolysis of ketoprofen-monoglyceride (50mg) was carried out in various DMF-100mM (NH4)H2 PO4 buffer (pH 5.5) mixtures. In each flask a solution of ketoprofen monoglyceride (50mg) in DMF (200ul) was added. DMF was added followed by 100mM (NH4)H2 PO4 buffer. […] After 22 hours, 2%, 5%, and 10% DMF samples were acidified, extracted with CHCl3 (2×10ml) and analyzed. The other samples were analyzed directly as in Example 18. The acid produced decreases with increasing amount of DMF.
Small amounts of DMF were added to the reaction mixture to increase the solubility of KPG. In all cases 100mM ammonium phosphate buffer (pH 5.5) was used and 2% (v/v) detergents were added and the total volume was 10ml.
The buffer reaction (entry #2 in the table) contained enzyme in buffer (2 ml) and the buffer only (entry #1 in the table) reaction contained no enzyme.
The presence of a surfactant like Tween increases the solubility o lipophilic compounds in water. […] Tween 80 was added to make 1% and 2% solution (v/v). Bovine serum albumin (BSA) (10mg) was added to each of two flasks. A solution of 50mg of ketoprofen monoglyceride in 200ul DMF was added to each. After 20 hours at 250 rpm and 35° C. the reaction mixtures were acidified, extracted and analyzed by the usual HPLC procedure as in Example 18.
Various surfactants were used at 2% of the reaction volume to determine their effect on the enzymatic reaction involving the conversion of ketoprofen monoglyceride (KPG) to ketoprofen (KP). […] Flasks were covered with parafilm and incubated in a 35° C. water bath at 250 rpm, typically overnight. Reactions were stopped by acidification, extracted with CHCl3 (2×10 ml). The %acid and %ee were determined by the method of Example 18. It is to be noted that Hydrophile-Lipophile Balance (HLB) values have no apparent bearing on the ability of the surfactant to enhance the conversion of KPG to KP.
75 mg of KPG (in the absence of DMF) was individually weighed into 50 ml Erlenmeyer flasks. […] 9 ml of 100 mM (NH4)H2 PO4, pH 5.5 buffer was added, and the flasks were placed into a 35° C., 250 rpm water bath incubator for 20 hours. The reactions were acidified, extracted with CHCl3 and examined by HPLC as in Example 18. The %ee was determined as per Example 18.
Various amounts of oleic acid or its esters were added, and the reactions stopped at the times indicated, acidified, extracted with CHCl3 and analyzed as in Example 18.
An experiment was performed as in Example 41, but using 100, 200 and 500 ul of olive oil to determine if it would enhance the rate of conversion of KPG to KP. […] After 20 hours, all reactions were acidified, extracted with CHCl3 and analyzed by HPLC as in Example 18. The results are given below:
50 mg of KPG was weighed into Erlenmeyer flasks. […] Flasks were incubated at 35° C., 250 rpm for 23 hours. The reactions were stopped by acidification, extracted with CHCl3, and analyzed by HPLC as in Example 18. The additive is listed along with its percentage composition of glycerides of oleic acid.
To determine the problems associated with having oleic acid or oleate. esters in the reaction media, the following experiment was performed. […] Flasks were placed in a 35° C. incubator at 250 rpm, and the reactions were sampled by taking 200 ul aliquots at various time points. These aliquots were analyzed by HPLC (ODS-3 RAC column, CH3 OH: 10 mM (NH4)H2 PO4 (60:40) eluant, 4 ml/min, 254 nm detection) to determine the course of reaction. When approximately 40% acid was produced, the reactions were stopped by placing the flasks in the -70° C. freezer. Two extraction procedures were utilized to determine the best method of isolating S-Ketoprofen free of oleic acid. The first (listed as Extraction Procedure I in the following table) involved first making the solution basic (pH 10) with NaOH, then extracting with hexane, then CHCl3.
Take `ClCC(Cl)Cl` [1,1,2 trichloroethane]: the “Relative Rate” value is recorded as 0.

Still in this test, the particulars now being: solvent/buffer 1:1 two phase, 26 hours.
For `C1=CCCCC1` [Cyclohexene], the “EE of S-acid” value is 89%.
For the compound `C1=CCCCCCC1` [Cyclooctene], the “EE of S-acid” value came to 95%.
As to `CC(C)CC(C)(C)C` [Isooctane], the “EE of S-acid” value is reported as 96%.

Still in this test, the particulars now being: solvent/buffer 1:1 two phase, 26 hours; buffer = 100.
Take `C1=CCCCC1` [Cyclohexene]: the “Relative Rate” value stood at 146.
On to `C1=CCCCCCC1` [Cyclooctene], for which the “Relative Rate” value was found to be 387.
For `CC(C)CC(C)(C)C` [Isooctane], the “Relative Rate” value is reported as 214.

The values above are taken from US5108916A, “Process for stereoselectively hydrolyzing, transesterifying or esterifying with immobilized isozyme of lipase from Candida rugosa” (priority 1989, dated 1992).
